Legend:
[1] = biological target: T1, Glucocorticoid receptor (Rattus norvegicus, UniProt P06536); assay: Transactivation activity at glucocorticoid receptor in rat H4II-E cells assessed as induction of tyrosine aminotransferase; format: ADME, cell-based
T1 sequence (P06536 whole entry): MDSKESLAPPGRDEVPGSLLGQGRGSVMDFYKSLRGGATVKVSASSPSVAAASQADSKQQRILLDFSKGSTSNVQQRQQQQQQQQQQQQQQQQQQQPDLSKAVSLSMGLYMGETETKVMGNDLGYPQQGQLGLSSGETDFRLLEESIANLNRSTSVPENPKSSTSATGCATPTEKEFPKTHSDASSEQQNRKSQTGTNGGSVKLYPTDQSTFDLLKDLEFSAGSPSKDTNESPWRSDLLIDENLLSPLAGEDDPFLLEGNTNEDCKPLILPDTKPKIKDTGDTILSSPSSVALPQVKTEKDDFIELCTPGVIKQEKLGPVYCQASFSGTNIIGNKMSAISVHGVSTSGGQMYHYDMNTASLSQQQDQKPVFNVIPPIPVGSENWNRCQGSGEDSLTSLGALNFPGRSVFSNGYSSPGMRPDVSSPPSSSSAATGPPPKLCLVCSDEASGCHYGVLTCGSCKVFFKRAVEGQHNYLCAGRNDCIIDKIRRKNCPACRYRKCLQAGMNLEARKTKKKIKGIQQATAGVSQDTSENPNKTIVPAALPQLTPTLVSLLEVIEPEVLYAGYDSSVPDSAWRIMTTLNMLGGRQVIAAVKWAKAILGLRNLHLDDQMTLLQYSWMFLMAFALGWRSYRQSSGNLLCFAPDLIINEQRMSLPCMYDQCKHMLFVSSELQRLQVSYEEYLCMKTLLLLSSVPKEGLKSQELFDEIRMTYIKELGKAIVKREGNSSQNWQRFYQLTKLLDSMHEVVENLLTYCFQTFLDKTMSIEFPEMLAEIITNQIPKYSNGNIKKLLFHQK

[2] = biological target: T2, Glucocorticoid receptor (Homo sapiens, UniProt P04150); assay: Transactivation activity at glucocorticoid receptor in human HepG2 cells assessed as induction of tyrosine aminotransferase; format: ADME, cell-based
T2 sequence (P04150 whole entry): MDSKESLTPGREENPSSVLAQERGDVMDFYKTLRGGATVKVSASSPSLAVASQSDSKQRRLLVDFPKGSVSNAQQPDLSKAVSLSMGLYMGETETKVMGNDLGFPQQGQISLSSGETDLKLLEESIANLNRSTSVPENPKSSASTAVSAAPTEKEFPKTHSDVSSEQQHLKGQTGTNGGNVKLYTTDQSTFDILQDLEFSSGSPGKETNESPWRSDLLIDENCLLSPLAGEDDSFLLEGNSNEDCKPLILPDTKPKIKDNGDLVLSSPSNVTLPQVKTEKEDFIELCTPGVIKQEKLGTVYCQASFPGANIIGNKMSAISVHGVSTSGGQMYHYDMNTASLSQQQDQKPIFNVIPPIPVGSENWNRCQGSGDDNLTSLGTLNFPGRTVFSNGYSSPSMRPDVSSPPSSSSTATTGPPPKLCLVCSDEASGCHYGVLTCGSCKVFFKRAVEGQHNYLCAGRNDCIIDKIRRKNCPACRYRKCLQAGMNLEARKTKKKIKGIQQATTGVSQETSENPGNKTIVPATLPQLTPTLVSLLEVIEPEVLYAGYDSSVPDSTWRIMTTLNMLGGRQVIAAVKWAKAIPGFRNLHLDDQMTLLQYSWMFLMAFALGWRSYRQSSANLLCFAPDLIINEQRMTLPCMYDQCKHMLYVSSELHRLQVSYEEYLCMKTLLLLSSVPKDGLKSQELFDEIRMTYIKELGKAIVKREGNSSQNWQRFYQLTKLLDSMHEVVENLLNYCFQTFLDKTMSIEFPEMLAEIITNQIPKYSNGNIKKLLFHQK

[3] = biological target: T2, Glucocorticoid receptor; assay: Transrepression activity at glucocorticoid receptor in human H292 cells assessed as inhibition of TNF-induced IL8 production; format: cell-based
[4] = biological target: T2, Glucocorticoid receptor; assay: Transactivation activity at human glucocorticoid receptor in cells co-expressing GRE by luciferase reporter gene assay; settings: read-out: IC50 (the source's name)
[5] = biological target: T2, Glucocorticoid receptor; assay: Transactivation activity at human glucocorticoid receptor in cells co-expressing GRE by luciferase reporter gene assay relative to control; settings: read-out: Efficacy
[6] = tested on: Rattus norvegicus; assay: Transactivation activity in Brown Norway rat lung inflammation model assessed as thymolysis measuring decrease in thymus weight at 10 mg/kg, po for 3 days; format: organism-based; design: dose 10 mg/kg, route oral; scale not given: the % may be the effect or the level left; settings: in vivo, 72 h
[7] = AUC in po dosed rat; format: ADME, organism-based; settings: plasma
[8] = tested on: Rattus norvegicus; assay: Antiinflammatory activity in Brown Norway rat lung inflammation model assessed as total cell inhibition at 10 mg/kg, po for 3 days; format: functional; settings: 72 h
[9] = Cmax in po dosed rat; format: ADME, organism-based; design: route oral; settings: in vivo
[10] = biological target: T2, Glucocorticoid receptor; assay: Inhibition of human glucocorticoid receptor
[11] = tested on: Rattus norvegicus; assay: Antiinflammatory activity in Brown Norway rat lung inflammation model assessed as total cell inhibition at 2 mg/kg, it; format: functional; settings: route endotracheal

Row | SMILES | IC50 [1] | IC50 [2] | IC50 [3] | EC50 [4] | Emax [5] | Activity [6] | AUC [7] | inhibition in vivo at 10 mg/kg [8] | Cmax [9] | IC50 [10] | inhibition in vivo at 2 mg/kg [11]
1 | C=CCn1c(SCC(=O)[C@@]2(O)CC[C@H]3[C@@H]4CCC5=Cc6c(cnn6-c6ccccc6)C[C@]5(C)[C@H]4[C@@H](O)C[C@@]32C)nc2ccccc21 | 258 nM | 278 nM | 3.43 nM | 28.6 nM | 86% | – | – | – | – | – | –
2 | C[C@]12C=CC(=O)C=C1CC[C@@H]1[C@@H]2[C@@H](O)C[C@@]2(C)[C@H]1CC[C@]2(O)C(=O)CO [PREDNISOLONE] | – | – | – | – | – | 53% | 1250 ng·h/mL | 56% | 682 ng/mL | – | –
3 | Cc1nc(SCC(=O)[C@@]2(O)CC[C@H]3[C@@H]4CCC5=Cc6c(cnn6C6CCCCC6)C[C@]5(C)[C@H]4[C@@H](O)C[C@@]32C)sc1C | 135 nM | 168 nM | 2.8 nM | 31.8 nM | 88% | – | – | – | – | – | –
4 | C[C@]12CCC(=O)C=C1CC[C@@H]1[C@@H]2[C@@H](O)C[C@@]2(C)[C@H]1CC[C@]2(O)C(=O)CSc1nc2ccccc2o1 | – | – | 26.7 nM | – | 35% | – | – | – | – | 3.9 nM | –
5 | Cc1nc(SCC(=O)[C@@]2(O)CC[C@H]3[C@@H]4CCC5=CC(=O)CC[C@]5(C)[C@H]4[C@@H](O)C[C@@]32C)sc1C | – | – | 21.9 nM | – | 57% | – | – | – | – | 4.3 nM | –
6 | C[C@]12Cc3cnn(C4CCCCC4)c3C=C1CC[C@@H]1[C@@H]2[C@@H](O)C[C@@]2(C)[C@H]1CC[C@]2(O)C(=O)CSc1ncccn1 | – | 1000 nM | 7.3 nM | 137 nM | 76% | – | – | – | – | – | –
7 | C[C@]12CCC(=O)C=C1CC[C@@H]1[C@@H]2[C@@H](O)C[C@@]2(C)[C@H]1CC[C@]2(O)C(=O)CSc1ccc2ccccc2n1 | – | – | 89.3 nM | – | 0% | – | – | – | – | 6.6 nM | –
8 | C[C@]12Cc3cnn(-c4ccccc4)c3C=C1CC[C@@H]1[C@@H]2[C@@H](O)C[C@@]2(C)[C@H]1CC[C@]2(O)C(=O)CSc1cnc2ccccc2n1 | 113 nM | 226 nM | 5.36 nM | – | 68% | – | 64 ng·h/mL | – | 21 ng/mL | – | 28%
9 | Cn1c(SCC(=O)[C@@]2(O)CC[C@H]3[C@@H]4CCC5=Cc6c(cnn6-c6ccccc6)C[C@]5(C)[C@H]4[C@@H](O)C[C@@]32C)nc2ccccc21 | 78 nM | 66.7 nM | 4.7 nM | 19.1 nM | 64% | – | – | – | – | – | –
10 | C[C@]12CCC(=O)C=C1CC[C@@H]1[C@@H]2[C@@H](O)C[C@@]2(C)[C@H]1CC[C@]2(O)C(=O)CSc1ccccn1 | – | – | 23.8 nM | – | 14% | – | – | – | – | 14.9 nM | –
11 | C[C@]12Cc3cnn(-c4ccccc4)c3C=C1CC[C@@H]1[C@@H]2[C@@H](O)C[C@@]2(C)[C@H]1CC[C@]2(O)C(=O)CSc1nc2ncccc2o1 | 33.8 nM | 37.7 nM | 0.89 nM | – | 83% | 67% | 2030 ng·h/mL | 62% | 467 ng/mL | – | –
12 | C[C@]12Cc3cnn(-c4ccccc4)c3C=C1CC[C@@H]1[C@@H]2[C@@H](O)C[C@@]2(C)[C@H]1CC[C@]2(O)C(=O)CSc1ccc2ccccc2n1 | 82.3 nM | 60.1 nM | 14.8 nM | 101 nM | 69% | – | – | – | – | – | –
13 | C[C@]12Cc3cnn(-c4ccccc4)c3C=C1CC[C@@H]1[C@@H]2[C@@H](O)C[C@@]2(C)[C@H]1CC[C@]2(O)C(=O)CSc1ccccn1 | 225 nM | 596 nM | 1.5 nM | 8.4 nM | 102% | – | – | – | – | – | –
14 | Cn1c(SCC(=O)[C@@]2(O)CC[C@@]3(C)[C@@H]4CCC5=CC(=O)CC[C@]5(C)[C@H]4[C@@H](O)C[C@@]32C)nc2ccccc21 | – | – | 56.1 nM | – | 8% | 5% | 150 ng·h/mL | 39% | 115 ng/mL | 8.9 nM | –
15 | C[C@]12Cc3cnn(-c4ccc(F)cc4)c3C=C1CC[C@@H]1[C@@H]2[C@@H](O)C[C@@]2(C)[C@H]1CC[C@]2(O)C(=O)CSc1nc2ncccc2o1 | 13.3 nM | 38.6 nM | 0.32 nM | – | – | 70% | 1630 ng·h/mL | 48% | 348 ng/mL | – | –
16 | C[C@]12CCC(=O)C=C1CC[C@@H]1[C@@H]2[C@@H](O)C[C@@]2(C)[C@H]1CC[C@]2(O)C(=O)CSc1nc2ncccc2s1 | – | – | 59.1 nM | – | 16% | – | – | – | – | 4.7 nM | –
17 | C[C@]12Cc3cnn(-c4ccc(F)cc4)c3C=C1CC[C@@H]1[C@@H]2[C@@H](O)C[C@@]2(C)[C@H]1CC[C@]2(O)C(=O)CSc1cnc2ccccc2n1 | – | – | 1.99 nM | – | – | – | – | – | – | – | 9%
18 | C[C@]12CCC(=O)C=C1CC[C@@H]1[C@@H]2[C@@H](O)C[C@@]2(C)[C@H]1CC[C@]2(O)C(=O)CSc1cnc2ccccc2n1 | – | – | 22.1 nM | – | 1% | 0% | 274 ng·h/mL | 39% | 255 ng/mL | – | –
